We go through one compound from article PMC10630452, “The tumor-enriched small molecule gambogic amide suppresses glioma by targeting WDR1-dependent cytoskeleton remodeling” (Signal Transduction and Targeted Therapy, 2023).

In general, Kd refers to the free concentration of one partner at which half of the binding sites on the other are occupied at equilibrium, for simple one-to-one binding. The low end stands for higher affinity, the high end for lower affinity.

Data set [1] addresses T1, His-WD2-7 (WD2 to WD7 repeats of WDR1) (Homo sapiens, UniProt O75083).
T1 construct: His; made in house; host or cells: Arctic-Express (E. coli)
The data set is described as follows: SPR analysis (Biacore 8 K). It is filed as binding. The following applies: immobilized His-WD2-7, 25 °C, 5% DMSO. The procedure:
The binding affinities of GA-amide for its target proteins GST-WDR1, GST, and His-WD2-7 were assayed by using the SPR-based Biacore 8 K instrument (GE Healthcare). The CM5 sensor chip was used to immobilize 15,000 RU of the target protein to the sensor surface by the standard amine coupling reaction at 25 °C in PBS running buffer. Gradient concentrations of GA-amide containing 5% DMSO were injected into the channels to evaluate the binding affinity. The dissociation constants (KD values) of the GA-amide–protein complexes were calculated with Biacore 8 K Evaluation Software.
The pGEX4T-1 plasmid was used to express the GST-WDR1 and GST proteins, while the pET-28c plasmid was used to express the His-WD2-7 protein. Arctic-ExpressTM was used for the production of the GST-WDR1, GST and His-WD2-7 fusion proteins. The cultures were grown at 37 °C, and when the OD600 reached 0.5–0.8, the protein was expressed after 0.5 mM IPTG was added. After 4 h, the cells were collected and washed with cold PBS twice.
For His-WD2-7 protein purification, cells were first lysed by sonication. WD2-7 was present the precipitate and solubilized as described above. Then, the protein was loaded onto a Balanced Ni-IDA-Sepharose Cl-6B column (Novagen) and washed with Ni-IDA Washing-Buffer (20 mM Tris-HCl, 20 mM imidazole, 0.15 M NaCl, pH 8.0). […]
Background: In SPR one partner is held on a chip, and binding of the other changes the refractive index at the surface.

In a further data set the target is T2, WDR1 (Homo sapiens, UniProt O75083).
T2 construct: GA-amide protected WDR1 at different temperature gradients in the CETSA in T2-4 cells; endogenous in cells; host or cells: T2-4 patient-derived glioma cells
T2 sequence (O75083 whole entry): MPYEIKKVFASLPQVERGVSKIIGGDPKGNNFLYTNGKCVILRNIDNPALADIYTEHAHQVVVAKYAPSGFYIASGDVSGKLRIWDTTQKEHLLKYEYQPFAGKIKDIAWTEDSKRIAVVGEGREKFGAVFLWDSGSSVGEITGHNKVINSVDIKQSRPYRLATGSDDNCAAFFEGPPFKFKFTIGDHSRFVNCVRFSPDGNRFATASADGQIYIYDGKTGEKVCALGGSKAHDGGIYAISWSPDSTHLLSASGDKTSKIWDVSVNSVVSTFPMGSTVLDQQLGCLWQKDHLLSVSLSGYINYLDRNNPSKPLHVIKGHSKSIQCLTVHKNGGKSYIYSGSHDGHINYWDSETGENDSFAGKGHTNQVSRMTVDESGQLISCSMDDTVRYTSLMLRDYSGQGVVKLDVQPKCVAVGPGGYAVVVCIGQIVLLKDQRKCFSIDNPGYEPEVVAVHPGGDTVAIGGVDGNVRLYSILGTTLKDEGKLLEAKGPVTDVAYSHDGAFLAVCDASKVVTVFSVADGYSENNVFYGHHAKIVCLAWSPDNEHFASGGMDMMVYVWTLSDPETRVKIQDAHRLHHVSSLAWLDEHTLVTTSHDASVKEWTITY
The data set is described as follows: Cellular thermal shift assay (CETSA) in T2-4 cells. It is filed as cell-based. The note with it: 3 µM, 1 h, 67°C–70°C. As to the method: The cellular thermal shift assay (CETSA) has been described previously. Briefly, cells were incubated with DMSO or 3 µM GA-amide for 1 h and washed with PBS three times. Then, the cells were suspended in 1 mL of PBS and divided into equal volumes, followed by heating for 3 min at the indicated temperatures. After heating, three snap freeze–thaw cycles were applied to lyse the cells, and western blotting was performed as previously described.

The nature of data set [2]: Acute toxicity assay, body weight. It is filed as in vivo, mice. The following applies: low dose 1 mg/kg, high dose 10 mg/kg, one-time i.v. The procedure: a Hematoxylin and eosin staining of sections from control and GA-amide-treated livers, kidney and small intestines, scale bars were shown in the panel. b Persistent records of the body weights and the statistical results of the body weight changes after one-time i.v. treatments of control (DMSO), 1 mg/kg GA-amide and 10 mg/kg GA-amide (n = 6, for control and 1mg/kg GA-amide; n = 5, for 10mg/kg GA-amide) were shown.

In data set [3] the test system is primary brain tumor (H-RasV12 activated, p53 silenced). The data set is described as follows: Transgenic mouse glioma model (pTomo-Ras-sip53 lentivirus). It is filed as in vivo, C57BL/6 mice. The note with it: 1 mg/kg i.v. daily for 11 days. As to the method: (§1) Fig. 3 The inhibitory effects of GA-amide in glioma stem cell-derived mouse models and transgenic mouse models. a, b GSC2 cells were implanted s.c. into nude mice. Mice were treated with control (DMSO) (n = 7) or GA-amide (2 mg/kg) (n = 8) via i.p. injection once daily for 11 days, after which a photograph (a) was taken to show the tumor volume, and the tumor volume was calculated by a modified ellipsoid formula in (b). c, d GSC2 cells were implanted intracranially into nude mice. Mice were injected i.v. with control (n = 8) or 1 mg/kg GA-amide (n = 8) daily for 13 days, the Mantel‒Cox log–rank test was used for analysis, and the relative survival curves are shown in (c). The body weights are shown in (d). e In vivo efficacy studies of GA-amide using transgenic mouse models. Glioma was induced in transgenic C57BL/6 mice by injection of pTomo-Ras-sip53 lentivirus, and the strategy is shown. f, g MRI analysis was used to group mice into the control (n = 7) and GA-amide-treated groups (n = 8) before treatment. The statistical results are shown in (f), and representative MRI images are shown in (g). […]

The test system of data set [4] is intracranial orthotopic glioma PDX. The data set can be described thus: Intracranial orthotopic PDX model (GBM2). The format is in vivo, NSG mice. The following applies: 1 mg/kg i.v. daily for 10 days. The procedure: as §1, with “treatment.” for “treatment. The statistical results are shown in (f), and representative MRI images are shown in (g).”
For the intracranial PDX model, the tumor tissue (GBM2) will be mechanically minced using scissors and then […] NSG mice (Male, 6–8 weeks). […] After 7 days of tumor development, the mice were grouped dependent on the tumor size measured by MRI. […] After treatment, the tumor size was measured by MRI again.

T1 sequence (O75083 48-306 limits assumed): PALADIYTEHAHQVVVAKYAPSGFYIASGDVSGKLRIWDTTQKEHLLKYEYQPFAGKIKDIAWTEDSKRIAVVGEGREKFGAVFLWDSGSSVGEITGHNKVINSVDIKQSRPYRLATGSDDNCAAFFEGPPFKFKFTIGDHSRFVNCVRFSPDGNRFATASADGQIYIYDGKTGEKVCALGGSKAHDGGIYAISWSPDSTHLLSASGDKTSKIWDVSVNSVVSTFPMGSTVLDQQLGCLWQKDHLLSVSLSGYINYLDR

For `CC(C)=CCC[C@]1(C)C=Cc2c(O)c3c(c(CC=C(C)C)c2O1)O[C@]12C(=C[C@@H]4CC1C(C)(C)O[C@@]2(C/C=C(/C)C(N)=O)C4=O)C3=O` [GA-amide, gambogic amide], the Kd in data set [1] is 46.7 µM. Moreover, the “WDR1 thermal stabilization (western blot band)” value at WDR1 is “the band persisted in the cells treated with GA-amide”. In addition, the “body weight after a single injection” value in data set [2] is “did not change the body weight”. Further, in data set [3], the “Ki67 and CD133 expression in tumor sections” value was “lower expression of the proliferation marker Ki67”; the “tumor size by MRI versus control” value is “significantly smaller compared to the control mice”. Moreover, the “tumor volume by MRI versus control” value in data set [4] is recorded as “significantly smaller compared to the control mice”.
